The text below walks through data of patent US8299100B2, “Potent and selective neuronal nitric oxide synthase inhibitors with improved membrane permeability” (Northwestern University, priority 2009, dated 2012).

As a reminder, the Ki is a measure of affinity in units of concentration, obtained from inhibition or displacement. In general, IC50 refers to the concentration at which inhibition is half-maximal.

One series addresses rat nNOS (Rattus norvegicus, UniProt P29476). As to the kind of experiment: NOS hemoglobin capture assay, purified recombinant enzyme (nNOS).
In the next series the target is murine macrophage iNOS (Mus musculus, UniProt P29477). Description: NOS hemoglobin capture assay, purified recombinant enzyme (iNOS). The settings on record: for selectivity n/i: ratio of Ki (iNOS) to Ki (nNOS).
The next series addresses bovine eNOS (Bos taurus, UniProt P29473). As to the kind of experiment: NOS hemoglobin capture assay, purified recombinant enzyme (eNOS). The settings on record: for selectivity n/e: ratio of Ki (eNOS) to Ki (nNOS).
A further series has as its target nNOS (Rattus norvegicus, UniProt P29476). As to the kind of experiment: cell-based assay of inhibitor potency (membrane permeability). The settings on record: for IC50: Table 3, cell-based assay; for increase in cell membrane permeation: relative to 1, from IC50/IC50(cell).
Where [1] appears, read: read-out: Ki nNOS, Table 4, Ki calculated from measured IC50, 10 μM L-arginine.

Molecules are shown by their SMILES. Like-named read-outs stand apart in the source and are kept apart here.

Procedure for bovine eNOS: (§1) The three isozymes were recombinant enzymes, which were overexpressed (in E. coli) and isolated as reported. The formation of nitric oxide was measured using a hemoglobin capture assay described previously.
(§2) The three isozymes were recombinant enzymes, which were overexpressed (in E. coli) and isolated as reported. The formation of nitric oxide was measured using a hemoglobin capture assay described previously. […] The corresponding Ki values of inhibitors were calculated from the IC50 values using equation 1 with known Km values, as above.
Procedure for murine macrophage iNOS: as §1, §2
Procedure for rat nNOS: as §1, §2

On to `Cc1cc(N)nc(C[C@@H]2CNC[C@@H]2OCCNCC(F)(F)c2cccc(F)c2)c1` [Compound 2db], for which the Ki on rat nNOS is 36 nM; on murine macrophage iNOS it was 51 µM; at bovine eNOS, 140 µM. Also, at rat nNOS (2db compared to 2da), the “lower Ki (nNOS)” value is listed as 10 fold.
For `Cc1cc(N)nc(CC2CNCC2OCCNCC(F)c2cccc(F)c2)c1` [Compound 2c, 6-(((3S,4S)/(3R,4R)-4-(2-(2-Fluoro-2-(3-fluorophenyl)propylamino)ethoxy)pyrrolidin-3-yl)methyl)-4-methylpyridin-2-amine], at nNOS, the half-maximal inhibitory concentration (IC50) came out at 10 µM and the “increase in cell membrane permeation” value was 1.7 fold.
For `CC1CC(N)=NC(C[C@@H]2CNC[C@@H]2OCCNCC(F)(F)c2ccccc2)C1` (stereo partly drawn) [Compound 2e], the Ki came out at 170 nM at rat nNOS, 26 µM on murine macrophage iNOS and 130 µM on bovine eNOS. The “drop in potency against nNOS” value at rat nNOS (compared to 2dd) worked out at 2 fold. Moreover, the selectivity n/i on murine macrophage iNOS (Table 4) turned out to be 150. Moreover, the “better binding to iNOS” value on murine macrophage iNOS (compared to 2dd) was “more than 3 fold”. Besides, at bovine eNOS (Table 4), the selectivity n/e turned out to be 770.
For the compound `Cc1cc(N)nc(C[C@@H]2CNC[C@@H]2OCCNCC(F)(F)c2ccccc2)c1` [Compound 2dd], the Ki at rat nNOS stood at 85 nM; on murine macrophage iNOS, 85 µM.
Consider `Cc1cc(N)nc(CC2CNCC2OCCNC2CC2c2cccc(F)c2)c1` [Compound 2b, 6-(((3S,4S)/(3R,4R)-4-(2-(2-(3-Fluorophenyl)cyclopropylamino)ethoxy)pyrrolidin-3-yl)methyl)-4-methylpyridin-2-amine], for which the results for the IC50 at nNOS and on rat nNOS were 9 µM and 400 nM, respectively. Also, the “IC50/IC50(cell) × 10^−2” value on nNOS (ratio of purified nNOS IC50 to cell-based IC50, indicates relative membrane permeability) is on record as 4.4 × 10^−2. Besides, on nNOS, the “increase in cell membrane permeation” value worked out at 2.4 fold. Besides, the values for the Ki at rat nNOS, on murine macrophage iNOS and at bovine eNOS were 46 nM, 11 µM and 68 µM, respectively. Moreover, on murine macrophage iNOS (Table 2), the selectivity n/i was determined as 220. The selectivity n/e at bovine eNOS (Table 2) is reported as 1500.
As for `Cc1cc(N)nc(C[C@H]2CNC[C@H]2OCCNCC(F)(F)C2CCCCN2)c1` (stereo partly drawn) [Compound 2f], the Ki came to 2700 nM at rat nNOS, 450 µM at murine macrophage iNOS and 64 µM at bovine eNOS. The selectivity n/i at murine macrophage iNOS (Table 4) was determined as 170. Also, the selectivity n/e on bovine eNOS (Table 4) was 24.
As for `Cc1cc(N)nc(C[C@@H]2CNC[C@@H]2OCCNCC(F)(F)c2ccc(F)cc2)c1` [Compound 2dc], on rat nNOS (compared to 2db), the “loss of potency (nNOS)” value was 4.5 fold. Also, the inhibition constant Ki on rat nNOS (setting [1]) is 160 nM; at murine macrophage iNOS (read-out: Ki iNOS, Table 4, Ki calculated from measured IC50, 10 μM L-arginine), 190 µM; on bovine eNOS (read-out: Ki eNOS, Table 4, Ki calculated from measured IC50, 10 μM L-arginine), 31 µM. Moreover, the selectivity n/i on murine macrophage iNOS (Table 4) was 1200. Besides, the selectivity n/e on bovine eNOS (Table 4) is 190.
For the compound `Cc1cc(N)nc(C[C@H]2CNC[C@H]2OCCNCC(F)(F)c2cccc(F)c2)c1` [Compound 2da], the inhibition constant Ki is 390 nM at rat nNOS, 130 µM on murine macrophage iNOS and 110 µM on bovine eNOS. In addition, the “loss of potency (nNOS)” value on rat nNOS (compared to racemic 2d) is recorded as “five-fold less potent”.
Consider `Cc1cc(N)nc(CC2CNCC2OCCNCC(F)(F)c2cccc(F)c2)c1` [Compound 2d, 6-(((3S,4S)/(3R,4R)-4-(2-(2,2-Difluoro-2-(3-fluorophenypethylamino)ethoxy)pyrrolidin-3-yemethyl)-4-methylpyridin-2-amine], for which the IC50 against nNOS was 19 µM; on rat nNOS (Table 3, purified enzyme assay (nNOS)) it was 700 nM. On nNOS, the “increase in cell membrane permeation” value is given as 2.0 fold. Besides, the Ki at rat nNOS (read-out: Ki nNOS, Table 2, Ki calculated from measured IC50, 10 μM L-arginine) is 80 nM; on rat nNOS (setting [1]), 80 nM. In addition, on rat nNOS (relative to 2c), the “drop in potency (nNOS)” value is 2.2 fold.
